Laboratory results as given in US11697650B2, “Compounds having tetrahydroindolizine-1-carboxamide as BCL-2 inhibitors” (Eil Therapeutics, Inc., priority 2021, dated 2023).

Assays:
[1] = system: caspase-3 and -7 activities in RS4-11 cells; assay: Caspase-3/7 activation (Caspase-Glo 3/7) in RS4-11 cells; type: cell-based; conditions: Homo sapiens, 3.5 h incubation, read-out: Cas-3/7 (EC50 code)
Experimental: The Caspase-Glo 3/7 Assay is homogeneous, luminescent assay that measures caspase-3 and -7 activities. The assay provides a luminogenic caspase-3/7 substrate, which contains the tetrapeptide sequence DEVD, in a reagent optimized for caspase activity.
Incubate RS4-11 cells with varying concentrations of test compounds for 3.5 h in a humidified incubator at 37° C. and 5% CO2 and 30 min at r.t. Add 15 μl Caspase-Glo reagent to each well and incubate the plate for 30 min at r.t. Read on ClarioStar Plus instrument.
Promega Caspase-Glo (Promega, #8212); Frozen RS4-11 cells; 384-well white plate (Corning, #3570).
ClarioStar Plus; Biomek FX for liquid handling (Beckman Coulter).

BCL-XL = BCL-XL (Homo sapiens (Human), UniProt Q07817); assay: BCL-XL TR-FRET Assay (primary PPI inhibition); type: binding; conditions: 60 min incubation; read-out: BCLxL (IC50 code, BCL-XL TR-FRET)
Chain of BCL-XL (Q07817 whole entry): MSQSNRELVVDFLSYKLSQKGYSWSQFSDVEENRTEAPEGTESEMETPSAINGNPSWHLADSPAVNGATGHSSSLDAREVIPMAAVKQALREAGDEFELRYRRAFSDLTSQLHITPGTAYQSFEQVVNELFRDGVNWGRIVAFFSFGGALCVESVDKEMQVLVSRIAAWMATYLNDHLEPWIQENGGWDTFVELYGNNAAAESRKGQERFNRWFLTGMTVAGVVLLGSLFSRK
Experimental: BCL-XL TR-FRET Assay (BPS Bioscience, #50223)
(§1) The following assay concentrations and times were used: 10.5 ng BCL-XL, 5 μl of 1:100 anti-His Tb-labeled donor, 5 μl of 1:100 Dye-labeled acceptor, 5 μl of 1:80 BCL-XL Peptide Ligand, and 2 μl of test compound, with 60 min incubation time. The results of the assay were read using a Clariostar (BMG Labtech) plate reader with the following parameters: TR FRET, 340ex/620 and 665em; 60 μsec Delay; and 500 μsec integration.

MOLT-4 cells = assay: Cell viability assay (CellTiter-Glo), MOLT-4; type: cell-based; conditions: Homo sapiens, 72 h, 3 days, read-out: MOLT-4 (CC50 code)
Experimental: (§2) Culture medium for HEK293—DMEM (PanEco, Cat #C420) was used. RPMI-1640 (PanEco, Cat #C363) was used for the rest of the cell lines.
(§3) Compounds were prepared as 200× stocks with serial dilution in 100% DMSO with a final concentration of 1×.
(§4) […] were dispersed in 40 μL aliquots in 384-well plates at a concentration of 2000 cells per well for HEK293 and at a concentration of 4000 cells per well for the rest of the cell lines using a robotic station Biomek (Beckman). Before adding compounds, the cells were incubated at 37° C. (HEK293 were incubated for a day before adding compounds).
(§5) A dilution plate was prepared by pouring 78 μL of the appropriate culture medium using a robotic station Biomek (Beckman). Sequentially, using a robotic station, 2 μL of substances were taken and added to 78 μL of culture medium (dilution of compounds 40×). 10 μL aliquots were taken and added to the plates of the cells (dilution of compounds 5×). The plates were incubated for 3 days at a temperature 37° C. After 3 days, 10 μL of CellTiter-Glo (Promega) was added to the cells and the luminescence was measured.

BCL-2 = BCL-2 (Homo sapiens (Human), UniProt P10415); assay: BCL-2 TR-FRET Assay (primary PPI inhibition); type: binding; conditions: 60 min incubation; read-out: BCL2 (IC50 code, BCL-2 TR-FRET)
Chain of BCL-2 (P10415 whole entry): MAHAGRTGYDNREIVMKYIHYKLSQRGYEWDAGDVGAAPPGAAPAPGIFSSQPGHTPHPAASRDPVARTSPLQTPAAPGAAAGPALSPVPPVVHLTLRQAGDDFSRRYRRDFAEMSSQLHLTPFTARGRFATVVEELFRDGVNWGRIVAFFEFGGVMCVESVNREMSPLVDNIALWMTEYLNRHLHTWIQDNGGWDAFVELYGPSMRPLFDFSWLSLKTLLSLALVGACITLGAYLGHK
Experimental: BCL-2 TR-FRET Assay (BPS Bioscience, #50222)
as §1, with “used: 3” for “used: 10.5”, “ng BCL-2,” for “ng BCL-XL,”, “of 1:40 BCL-2” for “of 1:80 BCL-XL”, “2 ul” for “2 μl”

RS4-11 cells = assay: Cell viability assay (CellTiter-Glo), RS4-11; type: cell-based; conditions: Homo sapiens, 72 h, 3 days, read-out: RS4-11 (CC50 code)
Experimental: as §2, §3, §4, §5

[2] = Cell viability assay (CellTiter-Glo), HEK293; type: cell-based; conditions: human, HEK293 cells, read-out: HEK293 (CC50 code)
Experimental: as §2, §3, §4, §5

Row | Structure (SMILES) | EC50 [1] [nM] | IC50 (BCL-XL) [nM] | CC50 (MOLT-4 cells) [nM] | IC50 (BCL-2) [nM] | CC50 (RS4-11 cells) [nM] | CC50 at 3 days [2] [nM]
1 | COc1c(C)cnc(CN(C(=O)c2cc(-c3cc4c(cc3C(=O)N3Cc5ccccc5C[C@H]3CN3CCOCC3)OCO4)n3c2CCCC3)c2ccc(O)cc2)c1C [Compound 23, N-(4-hydroxyphenyl)-N-[(4-methoxy-3,5-dimethylpyridin-2-yl)methyl]-3-(6-{[(3S)-3-(morpholin-4-ylmethyl)-3,4-dihydroisoquinolin-2(1H)-yl]carbonyl}-1,3-benzodioxol-5-yl)-5,6,7,8-tetrahydroindolizine-1-carboxamide] | > 250 | > 4000 | > 10000 | 10 to 50 | > 200 | 10000 to 25000
2 | O=C(c1cc(-c2cc3c(cc2C(=O)N2Cc4ccccc4C[C@H]2CN2CCOCC2)OCO3)n2c1CCCC2)N(Cc1ccc(C(F)(F)F)cc1)c1ccc(O)cc1 [Compound 24, N-(4-hydroxyphenyl)-3-(6-{[(3S)-3-(morpholin-4-ylmethyl)-3,4-dihydroisoquinolin-2(1H)-yl]carbonyl}-1,3-benzodioxol-5-yl)-N-[4-(trifluoromethyl)benzyl]-5,6,7,8-tetrahydroindolizine-1-carboxamide] | > 250 | > 4000 | 2000 to 10000 | 10 to 50 | > 200 | ≤ 10000
3 | COc1ccccc1CN(C(=O)c1cc(-c2cc3c(cc2C(=O)N2Cc4ccccc4C[C@H]2CN2CCOCC2)OCO3)n2c1CCCC2)c1ccc(O)cc1 [Compound 31, N-(4-hydroxyphenyl)-N-(2-methoxybenzyl)-3-(6-{[(3S)-3-(morpholin-4-ylmethyl)-3,4-dihydroisoquinolin-2(1H)-yl]carbonyl}-1,3-benzodioxol-5-yl)-5,6,7,8-tetrahydroindolizine-1-carboxamide] | ≤ 100 | ≤ 2000 | ≤ 2000 | ≤ 5 | ≤ 100 | > 25000
4 | O=C(c1cc(-c2cc3c(cc2C(=O)N2Cc4ccccc4C[C@H]2CN2CCOCC2)OCO3)n2c1CCCC2)N(Cc1ccccc1Cl)c1ccc(O)cc1 [Compound 33, N-(2-chlorobenzyl)-N-(4-hydroxyphenyl)-3-(6-{[(3S)-3-(morpholin-4-ylmethyl)-3,4-dihydroisoquinolin-2(1H)-yl]carbonyl}-1,3-benzodioxol-5-yl)-5,6,7,8-tetrahydroindolizine-1-carboxamide] | ≤ 100 | ≤ 2000 | ≤ 2000 | ≤ 5 | ≤ 100 | 10000 to 25000
5 | Cc1cccc(Cl)c1CN(C(=O)c1cc(-c2cc3c(cc2C(=O)N2Cc4ccccc4C[C@H]2CN2CCOCC2)OCO3)n2c1CCCC2)c1ccc(O)cc1 [Compound 34, N-(2-chloro-6-methylbenzyl)-N-(4-hydroxyphenyl)-3-(6-{[(3S)-3-(morpholin-4-ylmethyl)-3,4-dihydroisoquinolin-2(1H)-yl]carbonyl}-1,3-benzodioxol-5-yl)-5,6,7,8-tetrahydroindolizine-1-carboxamide] | > 250 | > 4000 | ≤ 2000 | > 50 | > 200 | > 25000
6 | O=C(c1cc(-c2cc3c(cc2C(=O)N2Cc4ccccc4C[C@H]2CN2CCOCC2)OCO3)n2c1CCCC2)N(Cc1c(Cl)ccc(F)c1F)c1ccc(O)cc1 [Compound 35, N-(6-chloro-2,3-difluorobenzyl)-N-(4-hydroxyphenyl)-3-(6-{[(3S)-3-(morpholin-4-ylmethyl)-3,4-dihydroisoquinolin-2(1H)-yl]carbonyl}-1,3-benzodioxol-5-yl)-5,6,7,8-tetrahydroindolizine-1-carboxamide] | > 250 | > 4000 | ≤ 2000 | 10 to 50 | > 200 | > 25000
